What was measured:
[1] = test system: HMPV clinical isolate TN/1501/A1; assay: HMPV antiviral assay Method-B (clinical isolate TN/1501/A1 in LLC-MK2 cells, ATP-Lite readout); format: cell-based, Human metapneumovirus (HMPV); settings: human metapneumovirus, LLC-MK2, 144 h, hMPV WT1501 (clinical isolate TN/1501/A1), 6 days
In short: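 EC50 derived by four-parameter logistic fit of percent cell health, measured by ATP-Lite luminescence and normalised to virus-only and uninfected-cell controls. Compounds run in duplicate from 10 μM top, 3-fold, 10 points. Infection: LLC-MK2 cells, MOI 0.014, 2 μg/mL final TPCK-trypsin, serum-free, 6 days at 37° C.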

[2] = test system: genotype A, "Long" strain RSV; assay: RSV-A assay (CPE protection in Hep-2 cells, ATPlite readout); format: cell-based, Human respiratory syncytial virus (HRSV); settings: human respiratory syncytial virus, RSV-A Long strain, MOI 0.1, CPE protection, read-out: Human RSV-A (“Long”) EC50
In short: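 Protection from RSV-induced cytopathic effect measured by ATP content (ATPlite) after 5-day culture. Infection used genotype A Long virus at MOI 0.1 on 8,000 Hep-2 cells per well, with compound serially diluted 2-fold; values are EC50.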

| Structure (SMILES) | EC50 [1] [nM] | EC50 [2] [nM] |
| --- | --- | --- |
| COc1cc(C(=O)NC[C@](O)(c2cc3c(c(-c4ccc(F)c(Cl)c4)n2)OC[C@@]3(C(N)=O)C(F)F)C(F)(F)F)cc2sc(C)nc12 [Example 1019] | < 500 | < 200 |
| Cc1cnc2c(OC(F)F)cc(C(=O)NC[C@](O)(c3cc4c(c(-c5ccc6c(c5)OC(F)(F)O6)n3)OC[C@]4(C(N)=O)C(F)F)C3CC3)cc2c1 [Example 1020] | > 500 | > 200 |
| Cc1cnc2c(OC(F)F)cc(C(=O)NC[C@](O)(c3cc4c(c(-c5ccc6c(c5)OC(F)(F)O6)n3)OC[C@@]4(C(N)=O)C(F)F)C3CC3)cc2c1 [Example 1021] | < 500 | < 200 |
| COc1cc(C(=O)NC[C@](O)(c2cc3c(c(-c4ccc(F)cc4)n2)OC[C@]3(C(N)=O)C(F)F)C2CC2)cc2cn(C3CC3)nc12 [Example 1022] | > 500 | > 200 |
| COc1cc(C(=O)NC[C@](O)(c2cc3c(c(-c4ccc(F)cc4)n2)OC[C@@]3(C(N)=O)C(F)F)C2CC2)cc2cn(C3CC3)nc12 [Example 1023] | < 500 | < 200 |
| COc1cc(C(=O)NC[C@](O)(c2cc3c(c(-c4ccc(F)c(Cl)c4)n2)OC[C@]3(C(N)=O)C(F)F)C2CC2)cc2cn(C3CC3)nc12 [Example 1024] | > 500 | > 200 |
| COc1cc(C(=O)NC[C@](O)(c2cc3c(c(-c4ccc(F)c(Cl)c4)n2)OC[C@@]3(C(N)=O)C(F)F)C2CC2)cc2cn(C3CC3)nc12 [Example 1025] | < 500 | < 200 |
| Cc1cnc2c(OC(F)F)cc(C(=O)NC[C@](O)(c3cc4c(c(-c5ccc(F)cc5)n3)OC[C@]4(C(N)=O)C(F)F)C3CC3)cc2c1 [Example 1026] | > 500 | > 200 |
| Cc1cnc2c(OC(F)F)cc(C(=O)NC[C@](O)(c3cc4c(c(-c5ccc(F)cc5)n3)OC[C@@]4(C(N)=O)C(F)F)C3CC3)cc2c1 [Example 1027] | < 500 | < 200 |
| Cc1cnc2c(OC(F)F)cc(C(=O)NC[C@](O)(c3cc4c(c(-c5ccc(F)c(Cl)c5)n3)OC[C@]4(C(N)=O)C(F)F)C3CC3)cc2c1 [Example 1028] | > 500 | > 200 |
| Cc1cnc2c(OC(F)F)cc(C(=O)NC[C@](O)(c3cc4c(c(-c5ccc(F)c(Cl)c5)n3)OC[C@@]4(C(N)=O)C(F)F)C3CC3)cc2c1 [Example 1029] | < 500 | < 200 |
| COc1cc(C(=O)NC[C@](O)(c2cc3c(c(-c4ccc(F)cc4)n2)OC[C@]3(C(N)=O)C(F)F)C2CC2)cc2cc(Cl)c(C)nc12 [Example 1030] | > 500 | < 200 |
| COc1cc(C(=O)NC[C@](O)(c2cc3c(c(-c4ccc(F)cc4)n2)OC[C@@]3(C(N)=O)C(F)F)C2CC2)cc2cc(Cl)c(C)nc12 [Example 1031] | < 500 | < 200 |
| COc1cc(C(=O)NC[C@](O)(c2cc3c(c(-c4ccc(F)c(Cl)c4)n2)OC[C@]3(C(N)=O)C(F)F)C2CC2)cc2cc(Cl)c(C)nc12 [Example 1032] | > 500 | > 200 |
| COc1cc(C(=O)NC[C@](O)(c2cc3c(c(-c4ccc(F)c(Cl)c4)n2)OC[C@@]3(C(N)=O)C(F)F)C2CC2)cc2cc(Cl)c(C)nc12 [Example 1033] | < 500 | < 200 |
| COc1cc(C(=O)NC[C@](O)(c2cc3c(c(-c4ccc5c(c4)OC(F)(F)O5)n2)OC[C@]3(C(N)=O)C(F)F)C(F)(F)F)cc2cn(C3CC3)nc12 [Example 1034] | > 500 | > 200 |
| COc1cc(C(=O)NC[C@](O)(c2cc3c(c(-c4ccc5c(c4)OC(F)(F)O5)n2)OC[C@@]3(C(N)=O)C(F)F)C(F)(F)F)cc2cn(C3CC3)nc12 [Example 1035] | < 500 | < 200 |
| COc1cc(C(=O)NC[C@](O)(c2cc3c(c(-c4ccc5c(c4)OC(F)(F)O5)n2)OC[C@]3(C(N)=O)C(F)F)C(F)(F)F)cc2cc(Cl)c(C)nc12 [Example 1036] | > 500 | > 200 |
| COc1cc(C(=O)NC[C@](O)(c2cc3c(c(-c4ccc5c(c4)OC(F)(F)O5)n2)OC[C@@]3(C(N)=O)C(F)F)C(F)(F)F)cc2cc(Cl)c(C)nc12 [Example 1037] | < 500 | < 200 |
| COc1cc(C(=O)NC[C@](O)(c2cc3c(c(-c4ccc(F)c(F)c4F)n2)OC[C@]3(C(N)=O)C(F)F)C(F)(F)F)cc2cn(C3CC3)nc12 [Example 1038] | > 500 | > 200 |

Next, values leading:

| EC50 [1] [nM] | EC50 [2] [nM] | Structure (SMILES) |
| --- | --- | --- |
| < 500 | < 200 | COc1cc(C(=O)NC[C@](O)(c2cc3c(c(-c4ccc(F)c(F)c4F)n2)OC[C@@]3(C(N)=O)C(F)F)C(F)(F)F)cc2cn(C3CC3)nc12 [Example 1039] |
| > 500 | < 200 | COc1cc(C(=O)NC[C@](O)(c2cc3c(c(-c4ccc(F)c(F)c4F)n2)OC[C@]3(C(N)=O)C(F)F)C(F)(F)F)cc2cc(Cl)c(C)nc12 [Example 1040] |
| < 500 | < 200 | COc1cc(C(=O)NC[C@](O)(c2cc3c(c(-c4ccc(F)c(F)c4F)n2)OC[C@@]3(C(N)=O)C(F)F)C(F)(F)F)cc2cc(Cl)c(C)nc12 [Example 1041] |
| < 500 | < 200 | COc1cc(C(=O)NC[C@](O)(c2cc3c(c(-c4ccc5c(c4)OC(F)(F)O5)n2)OC[C@@]3(C(N)=O)C(F)F)C2CC2)cc2cn(C3(F)CC3)nc12 [Example 1042] |
| < 500 | < 200 | Cc1cnc2c(OC(F)F)cc(C(=O)NC[C@](O)(c3cc4c(c(-c5ccc6c(c5)OC(F)(F)O6)n3)OC[C@@]4(C(N)=O)C(F)F)C(F)(F)F)cc2c1 [Example 1043] |
| < 500 | < 200 | COc1cc(C(=O)NC[C@](O)(c2cc3c(c(-c4ccc5c(c4)OC(F)(F)O5)n2)OC[C@@]3(C(N)=O)C(F)F)C2CC2)cc2cn(C(F)F)nc12 [Example 1044] |
| < 500 | < 200 | COc1cc(C(=O)NC[C@](O)(c2cc3c(c(-c4ccc(F)c(Cl)c4)n2)OC[C@@]3(C(N)=O)C(F)F)C2CC2)cc2cn(C(F)F)nc12 [Example 1045] |
| > 500 | > 200 | COc1cc(C(=O)NC[C@](O)(c2cc3c(c(-c4ccc(F)c(Cl)c4)n2)OC[C@@]3(CF)C(N)=O)C(F)(F)F)cc2cc(Cl)c(C)nc12 [Example 1046] |
| < 500 | < 200 | COc1cc(C(=O)NC[C@](O)(c2cc3c(c(-c4ccc(F)c(Cl)c4)n2)OC[C@]3(CF)C(N)=O)C(F)(F)F)cc2cc(Cl)c(C)nc12 [Example 1047] |
| < 500 | < 200 | COc1cc(C(=O)NC[C@](O)(c2cc3c(c(-c4ccc(F)c(Cl)c4)n2)OC[C@]3(CF)C(N)=O)C(F)(F)F)ccc1OC1CC1 [Example 1049] |
| < 500 | < 200 | COc1cc(C(=O)NC[C@](O)(c2cc3c(c(-c4ccc(F)c(Cl)c4)n2)OCC3(CF)C(N)=O)C(F)(F)F)cc2cn(C3CC3)nc12 (stereo partly shown) [Example 1050] |
| > 500 | < 200 | COc1cc(C(=O)NC[C@](O)(c2cc3c(c(-c4ccc(F)c(Cl)c4)n2)OC[C@@]3(CF)C(N)=O)C(F)(F)F)cc2cn(C3CC3)nc12 [Example 1051] |
| < 500 | < 200 | COc1cc(C(=O)NC[C@](O)(c2cc3c(c(-c4ccc(F)c(Cl)c4)n2)OC[C@]3(CF)C(N)=O)C(F)(F)F)cc2cn(C3CC3)nc12 [Example 1052] |
| > 500 | > 200 | NC(=O)[C@]1(CF)COc2c1cc([C@@](O)(CNC(=O)c1cc(OC3CC3)c3ncccc3c1)C1CC1)nc2-c1ccc(F)cc1 [Example 1053] |
| > 500 | < 200 | NC(=O)[C@@]1(CF)COc2c1cc([C@@](O)(CNC(=O)c1cc(OC3CC3)c3ncccc3c1)C1CC1)nc2-c1ccc(F)cc1 [Example 1054] |
| > 500 | > 200 | COc1cc(C(=O)NC[C@](O)(c2cc3c(c(-c4ccc(F)cc4)n2)OC[C@@]3(CF)C(N)=O)C2CC2)cc2cc(Cl)c(C)nc12 [Example 1055] |
| < 500 | < 200 | COc1cc(C(=O)NC[C@](O)(c2cc3c(c(-c4ccc(F)cc4)n2)OC[C@]3(CF)C(N)=O)C2CC2)cc2cc(Cl)c(C)nc12 [Example 1056] |
| > 500 | > 200 | Cc1cnc2c(OC(F)F)cc(C(=O)NC[C@](O)(c3cc4c(c(-c5ccc(F)cc5)n3)OC[C@@]4(CF)C(N)=O)C3CC3)cc2c1 [Example 1057] |
| < 500 | < 200 | Cc1cnc2c(OC(F)F)cc(C(=O)NC[C@](O)(c3cc4c(c(-c5ccc(F)cc5)n3)OC[C@]4(CF)C(N)=O)C3CC3)cc2c1 [Example 1058] |
| > 500 | > 200 | COc1cc(C(=O)NC[C@](O)(c2cc3c(c(-c4ccc(F)cc4)n2)OC[C@@]3(CF)C(N)=O)C2CC2)cc2cc(C3CC3)nn12 [Example 1059] |
| < 500 | < 200 | COc1cc(C(=O)NC[C@](O)(c2cc3c(c(-c4ccc(F)cc4)n2)OC[C@]3(CF)C(N)=O)C2CC2)cc2cc(C3CC3)nn12 [Example 1060] |
| > 500 | > 200 | COc1cc(C(=O)NC[C@](O)(c2cc3c(c(-c4ccc(F)cc4)n2)OC[C@@]3(CF)C(N)=O)C2CC2)cc2cn(C(F)F)nc12 [Example 1061] |
| < 500 | < 200 | COc1cc(C(=O)NC[C@](O)(c2cc3c(c(-c4ccc(F)cc4)n2)OC[C@]3(CF)C(N)=O)C2CC2)cc2cn(C(F)F)nc12 [Example 1062] |
| > 500 | > 200 | COc1cc(C(=O)NC[C@](O)(c2cc3c(c(-c4ccc(F)cc4)n2)OC[C@@]3(CF)C(N)=O)C2CC2)cc2cn(C3CC3)nc12 [Example 1063] |

From patent US12612412B2, “Antiviral heterocyclic compounds” (Enanta Pharmaceuticals, Inc., priority 2021, dated 2026)
